Measured values published in patent US6362183B1, “Aromatic sulfonyl alpha-hydroxy hydroxamic acid compounds” (G. D. Searle & Company, priority 1997, dated 2002).

Key:
MMP-9 = MMP-9 (Homo sapiens, UniProt P14780); assay: In vitro metalloprotease inhibition, fluorogenic peptide assay; format: biochemical; details: MCA peptide substrate 4 μM, room temperature, pH 7.5
Protocol: (§1) Briefly, 4-aminophenylmercuric acetate (APMA) or trypsin activated MMPs were incubated with various concentrations of the inhibitor compound at room temperature for 5 minutes.
(§2) MCA-ProLeuGlyLeuDpaAlaArgNH^2, wherein MCA is methoxycoumarin and Dpa is 3-(2,4-dinitrophenyl)-L-2,3-diaminopropionyl alanine.
(§3) The buffer used for assays contained 100 mM Tris-HCl, 100 mM NaCl, 10 mM CaCl2 and 0.05 percent polyethyleneglycol (23) lauryl ether at a pH value of 7.5.

MMP-8 = MMP-8 (Homo sapiens, UniProt P22894); assay: as above; format: biochemical; details: MCA peptide substrate 4 μM, room temperature, pH 7.5
Sequence of MMP-8 (P22894 101-467, species assumed): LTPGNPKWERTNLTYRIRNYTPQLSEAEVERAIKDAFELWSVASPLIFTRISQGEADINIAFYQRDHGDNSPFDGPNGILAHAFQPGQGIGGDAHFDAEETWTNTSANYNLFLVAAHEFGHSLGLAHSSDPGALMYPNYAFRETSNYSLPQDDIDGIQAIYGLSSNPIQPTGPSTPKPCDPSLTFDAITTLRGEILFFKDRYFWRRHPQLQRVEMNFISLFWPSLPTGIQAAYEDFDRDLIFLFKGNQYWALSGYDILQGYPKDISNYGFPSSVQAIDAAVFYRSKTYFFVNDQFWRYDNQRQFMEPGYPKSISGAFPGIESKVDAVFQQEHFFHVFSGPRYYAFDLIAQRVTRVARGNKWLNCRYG
Protocol: as §1, §2, §3

MMP-3 = MMP-3 (Homo sapiens, UniProt P08254); assay: as above; format: biochemical; details: MCA peptide substrate 4 μM, room temperature, pH 7.5
Sequence of MMP-3 (P08254 100-477, species assumed): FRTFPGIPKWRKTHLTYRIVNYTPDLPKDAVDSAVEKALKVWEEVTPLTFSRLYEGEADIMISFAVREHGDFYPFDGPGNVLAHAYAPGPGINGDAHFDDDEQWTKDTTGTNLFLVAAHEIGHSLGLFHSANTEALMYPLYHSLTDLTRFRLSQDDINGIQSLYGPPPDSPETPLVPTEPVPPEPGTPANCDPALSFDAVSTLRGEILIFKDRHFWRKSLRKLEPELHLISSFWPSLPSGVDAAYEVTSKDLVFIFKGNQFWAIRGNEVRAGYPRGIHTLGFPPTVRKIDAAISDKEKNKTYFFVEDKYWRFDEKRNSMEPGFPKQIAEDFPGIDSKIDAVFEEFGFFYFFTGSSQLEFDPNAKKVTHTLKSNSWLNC
Protocol: as §1, §2, §3

MMP-2 = biological target: T1, MMP-2 (Homo sapiens, UniProt P08253); assay: as above; format: biochemical; details: MCA peptide substrate 4 μM, room temperature, pH 7.5
T1 sequence (P08253 110-660): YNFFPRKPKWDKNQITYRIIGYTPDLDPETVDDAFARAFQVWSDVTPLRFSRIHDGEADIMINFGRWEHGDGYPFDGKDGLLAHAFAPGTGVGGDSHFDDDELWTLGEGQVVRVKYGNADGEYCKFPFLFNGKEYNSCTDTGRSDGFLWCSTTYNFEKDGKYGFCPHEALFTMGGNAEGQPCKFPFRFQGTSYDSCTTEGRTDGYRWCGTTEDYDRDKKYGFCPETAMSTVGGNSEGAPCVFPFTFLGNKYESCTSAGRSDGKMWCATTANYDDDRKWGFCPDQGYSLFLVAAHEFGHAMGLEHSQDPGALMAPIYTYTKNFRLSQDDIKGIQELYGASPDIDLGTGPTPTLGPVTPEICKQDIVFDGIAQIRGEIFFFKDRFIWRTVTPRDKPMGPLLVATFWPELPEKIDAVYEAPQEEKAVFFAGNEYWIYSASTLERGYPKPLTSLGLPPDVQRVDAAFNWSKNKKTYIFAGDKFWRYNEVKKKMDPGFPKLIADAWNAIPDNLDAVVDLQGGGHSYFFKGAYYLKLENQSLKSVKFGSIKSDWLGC
Protocol: as §1, §2, §3

recombinant human MMP-1 = biological target: T2, recombinant human MMP-1 (Homo sapiens, UniProt P03956); assay: as above; format: biochemical; details: APMA-activated enzyme, MCA peptide substrate 4 μM, room temperature, pH 7.5
T2 construct: made in house; host or cells: transfected HT-1080 cells
T2 sequence (P03956 100-469): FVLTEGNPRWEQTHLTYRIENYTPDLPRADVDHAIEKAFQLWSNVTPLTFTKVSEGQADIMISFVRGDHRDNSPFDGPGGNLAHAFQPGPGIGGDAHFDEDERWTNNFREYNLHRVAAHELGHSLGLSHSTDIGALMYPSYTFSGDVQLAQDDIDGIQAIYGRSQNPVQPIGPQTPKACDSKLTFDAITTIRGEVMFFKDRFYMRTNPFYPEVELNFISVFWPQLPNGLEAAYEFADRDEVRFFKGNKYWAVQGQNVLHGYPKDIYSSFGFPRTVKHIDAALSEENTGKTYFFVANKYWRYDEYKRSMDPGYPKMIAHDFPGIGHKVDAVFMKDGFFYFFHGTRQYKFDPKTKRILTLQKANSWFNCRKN
Protocol: as §1
(§4) More specifically, recombinant human MMP-13 and MMP-1 enzymes were prepared in laboratories of the assignee. MMP-13 was expressed in baculovirus as a proenzyme, and purified first over a heparin agarose column and then over a chelating zinc chloride column. The proenzyme was activated by APMA for use in the assay. MMP-1 expressed in transfected HT-1080 cells was provided by Dr. Howard Welgus of Washington University, St. Louis, Mo. The enzyme was also activated using APMA and was then purified over a hydroxamic acid column.
as §2, §3

recombinant human MMP-13 = biological target: T3, recombinant human MMP-13 (Homo sapiens, UniProt P45452); assay: as above; format: biochemical; details: for IC50: APMA-activated enzyme, MCA peptide substrate 4 μM, room temperature, pH 7.5
T3 construct: made in house
Protocol: as §1, §4, §2, §3

[1] = tested on: angiogenesis in the cornea of a mouse; assay: In vivo angiogenesis assay (corneal micropocket assay); set-up: species or system mouse (C57Bl/6); details: area of corneal neovascularization, bFGF pellet, dosed daily, scored at day five; exemplary dose 50 mg/kg bid, po
Protocol: The study of angiogenesis depends on a reliable and reproducible model for the stimulation and inhibition of a neovascular response. The corneal micropocket assay provides such a model of angiogenesis in the cornea of a mouse. See, A Model of Angiogenesis in the Mouse Cornea; Kenyon, B M, et al., Investigative Ophthalmology & Visual Science, Jul.
In this assay, uniformly sized Hydron™ pellets containing bFGF and sucralfate were prepared and surgically implanted into the stroma mouse cornea adjacent to the temporal limbus. The pellets were formed by making a suspension of 20 μL sterile saline containing […] recombinant bFGF, 10 mg of sucralfate and 10 μL of 12 percent Hydron™ in ethanol. The slurry was then deposited on a 10×10 mm piece of sterile nylon mesh. After drying, the nylon fibers of the mesh were separated to release the pellets.
The corneal pocket was made by anesthetizing a 7 week old C57Bl/6 female mouse, then proptosing the eye with a jeweler's forceps. Using a dissecting microscope, a central, intrastromal linear keratotomy of approximately 0.6 mm in length was performed with a #15 surgical blade, parallel to the insertion of the lateral rectus muscle. Using a modified cataract knife, a lamellar micropocket was dissected toward the temporal limbus. The pocket was extended to within 1.0 mm of the temporal limbus. A single pellet was placed on the corneal surface at the base of the pocket with a jeweler's forceps. The pellet was then advanced to the temporal end of the pocket. Antibiotic ointment was then applied to the eye.
Mice were dosed on a daily basis for the duration of the assay. Dosing of the animals was based on bioavailability and overall potency of the compound. An exemplary dose is 50 mg/kg bid, po. Neovascularization of the corneal stroma begins at about day three and was permitted to continue under the influence of the assayed compound until day five. At day five, the degree of angiogenic inhibition was scored by viewing the neovascular progression with a slit lamp microscope.
The mice were anesthetized and the studied eye was once again proptosed. The maximum vessel length of neovascularization, extending from the limbal vascular plexus toward the pellet was measured. In addition, the contiguous circumferential zone of neovascularization was measured as clock hours, where 30 degrees of arc equals one clock hour. The area of angiogenesis was calculated as follows. [formula]
The studied mice were thereafter compared to control mice and the difference in the area of neovascularization was recorded.

Sequence of MMP-9 (P14780 107-707 limits assumed, species assumed): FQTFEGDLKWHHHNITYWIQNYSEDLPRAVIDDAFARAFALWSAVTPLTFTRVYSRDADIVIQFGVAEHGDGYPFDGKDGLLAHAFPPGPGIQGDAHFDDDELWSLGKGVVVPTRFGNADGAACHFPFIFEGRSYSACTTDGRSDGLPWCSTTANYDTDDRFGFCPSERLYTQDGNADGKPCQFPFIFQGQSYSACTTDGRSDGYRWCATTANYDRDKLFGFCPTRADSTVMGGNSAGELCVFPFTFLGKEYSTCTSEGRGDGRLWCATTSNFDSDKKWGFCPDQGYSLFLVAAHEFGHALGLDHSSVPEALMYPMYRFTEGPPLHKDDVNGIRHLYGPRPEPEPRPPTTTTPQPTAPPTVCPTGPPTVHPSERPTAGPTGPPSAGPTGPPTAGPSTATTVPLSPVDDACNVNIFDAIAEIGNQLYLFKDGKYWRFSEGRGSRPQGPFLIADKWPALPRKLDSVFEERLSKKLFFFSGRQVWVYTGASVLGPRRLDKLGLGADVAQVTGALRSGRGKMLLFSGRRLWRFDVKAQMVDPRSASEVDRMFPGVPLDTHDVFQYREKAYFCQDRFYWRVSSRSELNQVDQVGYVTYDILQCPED

SMILES	IC50 (MMP-9) [nM]	IC50 (MMP-8) [nM]	IC50 (MMP-3) [nM]	IC50 (MMP-2) [nM]	IC50 (recombinant human MMP-1) [nM]	IC50 (recombinant human MMP-13) [nM]	ratio of inhibition of MMP-1 to inhibition of MMP-13, relative to the compound of opposite configuration (recombinant human MMP-13; Example 1A versus Example 1B)	inhibitory activity against MMP-13 (in words) (recombinant human MMP-13; discussion of Table 51)	Percentage of Control [1] [%]
Cc1ccc(Oc2ccc(S(=O)(=O)CC(O)(CN3CCOCC3)C(=O)NO)cc2)cc1C (stereo not drawn) [Example 7, α-[[[4-(3,4-dimethylphenoxy)-phenyl]sulfonyl]methyl]-N-2-dihydroxy-4-morpholineproanamide]	13	4	51.8	2	> 10000	2.1	–	–	–
O=C(NO)C(O)CS(=O)(=O)c1ccc(Sc2ccccc2)cc1 (stereo not shown) [Example 12, N,2-dihydroxy-3-[[4-(phenylthio)phenyl]sulfonyl]propanamide]	175	–	–	2	> 10000	3.7	–	–	–
O=C(Nc1ccc(S(=O)(=O)CC(O)C(=O)NO)cc1)c1ccccc1 (stereo not shown) [Example 23, N-[4-[[2-hydroxy-3-(hydroxyamino)-3-oxopropyl]sulfonyl]phenyl]benzamide]	1330	–	–	2.8	> 10000	220	–	–	–
CCCCc1ccc(C(=O)Nc2ccc(S(=O)(=O)CC(C)(O)C(=O)NO)cc2)cc1 (stereo not shown) [Example 28, 4-butyl-N-[4-[[2-hydroxy-3-(hydroxyamino) -2-methyl-3-oxopropyl]-sulfonyl]phenyl]benzamide]	–	–	–	< 0.1	> 10000	0.8	–	–	–
CC(O)(CS(=O)(=O)c1ccc(NC(=O)c2cccc(F)c2)cc1)C(=O)NO (stereo not shown) [Example 29]	–	–	–	1.8	> 10000	80	–	–	–
Cc1cccc(C(=O)Nc2ccc(S(=O)(=O)CC(C)(O)C(=O)NO)cc2)c1 (stereo not shown) [Example 30, N-[4-[[2-hydroxy-3-(hydroxyamino)-2-methyl-3-oxopropyl]sulfonyl]phenyl]-3-methylbenzamide]	–	–	–	20	> 10000	316	–	–	–
CC(O)(CS(=O)(=O)c1ccc(NC(=O)c2cccc(Cl)c2)cc1)C(=O)NO (stereo not shown) [Example 31, 3-chloro-N-[4-[[2-hydroxy-3-(hydroxyamino)-2-methyl-3-oxopropyl]sulfonyl]phenyl]benzamide]	–	–	–	37.2	> 10000	600	–	–	–
CC(O)(CS(=O)(=O)c1ccc(NC(=O)c2ccc(F)c(F)c2)cc1)C(=O)NO (stereo not shown) [Example 32, 3,4-difluoro-N-[4-[[2-hydroxy-3-(hydroxyamino)-2-methyl-3-oxopropyl]sulfonyl]phenyl]benzamide]	–	–	–	1.6	> 10000	80	–	–	–
CC(O)(CS(=O)(=O)c1ccc(NC(=O)c2cccc([N+](=O)[O-])c2)cc1)C(=O)NO (stereo not shown) [Example 33]	–	–	–	50	> 10000	1600	–	–	–
CC(O)(CS(=O)(=O)c1ccc(NC(=O)c2cccc(NCCCCO)c2)cc1)C(=O)NO (stereo not shown) [Example 34]	–	–	–	32.7	> 10000	1600	–	–	–

Second part, led by results:

IC50 (MMP-9) [nM]	IC50 (MMP-8) [nM]	IC50 (MMP-3) [nM]	IC50 (MMP-2) [nM]	IC50 (recombinant human MMP-1) [nM]	IC50 (recombinant human MMP-13) [nM]	ratio of inhibition of MMP-1 to inhibition of MMP-13, relative to the compound of opposite configuration (recombinant human MMP-13; Example 1A versus Example 1B)	inhibitory activity against MMP-13 (in words) (recombinant human MMP-13; discussion of Table 51)	SMILES	Percentage of Control [1] [%]
4.8	2.5	30	0.5	1100	1.1	–	–	CC(O)(CS(=O)(=O)c1ccc(Oc2ccccc2)cc1)C(=O)NO (stereo not shown) [Example 1, N,2-dihydroxy-2-methyl-3-[(4-phenoxyphenyl)sulfonyl]propanamide]	51.9
1.7	–	–	0.39	1010	0.75	about 2 times	–	C[C@@](O)(CS(=O)(=O)c1ccc(Oc2ccccc2)cc1)C(=O)NO [Example 1A, (S)—N,2-dihydroxy-2-methyl-3-[(4-phenoxyphenyl)sulfonyl]propanamide]	62.7
328	–	–	11	> 10000	21.5	–	–	C[C@](O)(CS(=O)(=O)c1ccc(Oc2ccccc2)cc1)C(=O)NO [Example 1B, (R)—N,2-dihydroxy-2-methyl-3-[(4-phenoxyphenyl)sulfonyl]-propanamide]	49.3
16	–	–	0.4	3000	0.2	–	excellent activity	O=C(NO)C(O)CS(=O)(=O)c1ccc(Oc2ccccc2)cc1 (stereo not shown) [Example 9]	61.1
18	–	–	0.4	4000	1	–	–	O=C(NO)[C@@H](O)CS(=O)(=O)c1ccc(Oc2ccccc2)cc1 [Example 10, (R)—N,2-dihydroxy-3-[(4-phenoxyphenyl)sulfonyl]propanamide]	–
66	–	–	7	7000	5	–	–	O=C(NO)[C@H](O)CS(=O)(=O)c1ccc(Oc2ccccc2)cc1 [Example 11, (S)—N,2-dihydroxy-3-[(4-phenoxyphenyl)sulfonyl]propanamide]	–
70	–	–	2.3	> 10000	5	–	–	O=C(NO)C(O)(CO)CS(=O)(=O)c1ccc(Sc2ccccc2)cc1 (stereo not shown) [Example 13]	–
1160	–	–	0.8	> 10000	110	–	–	CC(O)(CS(=O)(=O)c1ccc(NC(=O)c2ccccc2)cc1)C(=O)NO (stereo not shown) [Example 16, N-[4-[[2-hydroxy-3-(hydroxyamino)-2-methyl-3-oxopropyl]-sulfonyl]phenyl]benzamide]	41.6
–	–	–	10	> 10000	666	–	–	COc1cccc(C(=O)Nc2ccc(S(=O)(=O)CC(C)(O)C(=O)NO)cc2)c1 (stereo not shown) [Example 27]	–
–	–	–	6.7	> 10000	290	–	–	CC(O)(CS(=O)(=O)c1ccc(NC(=O)c2cccc(N)c2)cc1)C(=O)NO (stereo not shown) [Example 35, 3-amino-N-[4-[[2-hydroxy-3-(hydroxyamino)-2-methyl-3-oxopropyl]-sulfonyl]phenyl]benzamide]	–
